According to the supplement of paper PMC10307832:

Key:
Experiment in all cases: relative viability (nuclei count vs DMSO), 5 days (fraction); higher = more cells survive
[1] = compound: Cc1nc(NC(=O)N2CCC[C@H]2C(N)=O)sc1-c1ccnc(C(C)(C)C(F)(F)F)c1 [Alpelisib] + CCNC(=O)c1noc(-c2cc(C(C)C)c(O)cc2O)c1-c1ccc(CN2CCOCC2)cc1 [Luminespib] (partner 0.01 µM)
In short: (§1)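 Lung cancer cell lines in 1536-well plates got either a single drug or a fixed anchor-drug dose together with five library-drug doses (not always all listed) in √10 steps, by pin tool, on the day after seeding. Nuclei were counted after 5 days, and relative viability is the treated-to-vehicle ratio of nuclei counts. Values are medians of duplicate plates.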

[2] = compound: CCCS(=O)(=O)Nc1ccc(F)c(C(=O)c2c[nH]c3ncc(-c4ccc(Cl)cc4)cc23)c1F [Vemurafenib] + COc1cccc2cc(-c3nc([C@H]4CC[C@H](C(=O)O)CC4)n4ncnc(N)c34)[nH]c12 [OSI-027] (partner 0.5 µM)
In short: as §1

[3] = compound: COc1cccc2cc(-c3nc([C@H]4CC[C@H](C(=O)O)CC4)n4ncnc(N)c34)[nH]c12 [OSI-027] + N=C(N)NC(=N)NCCc1ccccc1 [Phenformin] (partner 250 µM)
In short: as §1

[4] = compound: CCCS(=O)(=O)Nc1ccc(F)c(C(=O)c2c[nH]c3ncc(-c4ccc(Cl)cc4)cc23)c1F [Vemurafenib] + C[C@@H](Oc1cc(-c2cnn(C3CCNCC3)c2)cnc1N)c1c(Cl)ccc(F)c1Cl [Crizotinib] (partner 1 µM)
In short: as §1

UMC-11
relative viability ([1]; first compound 0.04 µM): 1.04 | relative viability ([1]; first compound 0.1265 µM): 1.05 | relative viability ([1]; first compound 0.4 µM): 1.06 | relative viability ([1]; first compound 1.265 µM): 0.766 | relative viability ([1]; first compound 4 µM): 0.729 | relative viability ([2]; first compound 0.03162 µM): 0.541 | relative viability ([2]; first compound 0.1 µM): 0.519 | relative viability ([2]; first compound 0.3162 µM): 0.411 | relative viability ([2]; first compound 1 µM): 0.44 | relative viability ([3]; first compound 0.01 µM): 0.337 | relative viability ([3]; first compound 0.03162 µM): 0.366 | relative viability ([3]; first compound 0.1 µM): 0.311 | relative viability ([3]; first compound 0.3162 µM): 0.311 | relative viability ([3]; first compound 1 µM): 0.274 | relative viability ([4]; first compound 0.03162 µM): 0.638 | relative viability ([4]; first compound 0.1 µM): 0.616 | relative viability ([4]; first compound 0.3162 µM): 0.629 | relative viability ([4]; first compound 1 µM): 0.633
